Results published in PubChem BioAssay AID328 (DTP/NCI, 2004).
Where “and” joins values, the source holds several entries; their conditions need not be identical. Equal values may be shown once. Inconclusive results and toxic doses are left out.

System: BDF1 mice, P388 leukemia ip, median survival T/C
Assay: NCI In Vivo Anticancer Drug Screen. Data for tumor model P388 Leukemia (intraperitoneal) in B6D2F1 (BDF1) mice
Details: endpoint: median survival time, higher = longer survival
Method in brief: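 T/C = treated-group survival ÷ vehicle-control survival; tumour transplanted into mice before dosing.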

[1] = dose: 100.0 mg/kg/injection, schedule: Q01DX009 (ip), vehicle: saline with Tween-80
[2] = dose: 200.0 mg/kg/injection, schedule: Q01DX009 (ip), vehicle: saline with Tween-80
[3] = dose: 5.0 mg/kg/injection, schedule: Q01DX009 (ip), vehicle: saline with Tween-80
[4] = dose: 5.0 mg/kg/injection, schedule: Q04DX003 (ip), vehicle: saline with Tween-80
[5] = dose: 10.0 mg/kg/injection, schedule: Q01DX009 (ip), vehicle: saline with Tween-80

## N#Cc1cn(C2OC(CO)C(O)C2O)c2ncnc(N)c12 (configuration not stated)
dose: 0.37 mg/kg/injection, schedule: Q04DX003 (ip), vehicle: other
  T/C: 163 % of control
dose: 0.38 mg/kg/injection, schedule: Q01DX009 (ip), vehicle: other
  T/C: 105 % of control
dose: 0.56 mg/kg/injection, schedule: Q04DX003 (ip), vehicle: other
  T/C: 159 % of control
dose: 0.83 mg/kg/injection, schedule: Q04DX003 (ip), vehicle: other
  T/C: 172 % of control
dose: 0.88 mg/kg/injection, schedule: Q04DX003 (ip), vehicle: other
  T/C: 154 % of control
dose: 1.25 mg/kg/injection, schedule: Q04DX003 (ip), vehicle: other
  T/C: 204 % of control
dose: 1.33 mg/kg/injection, schedule: Q04DX003 (ip), vehicle: other
  T/C: 200 % of control
dose: 2.0 mg/kg/injection, schedule: Q04DX003 (ip), vehicle: other
  T/C: 150 % of control
dose: 3.0 mg/kg/injection, schedule: Q04DX003 (ip), vehicle: other
  T/C: 100 % of control

## COC(=O)CCSC(c1ccccc1)(c1ccccc1)c1ccccc1
dose: 87.0 mg/kg/injection, schedule: Q01DX009 (ip), vehicle: Klucel (hydroxypropylcellulose) (HPC)
  T/C: 96 % of control

## CC1(C#N)c2ccccc2C=CN1C(=O)c1ccccc1 (configuration not stated)
dose: 100.0 mg/kg/injection, schedule: Q01DX009 (ip), vehicle: Klucel (hydroxypropylcellulose) (HPC)
  T/C: 90 % of control
dose: 100.0 mg/kg/injection, schedule: Q04DX003 (ip), vehicle: Klucel (hydroxypropylcellulose) (HPC)
  T/C: 100 % of control
dose: 200.0 mg/kg/injection, schedule: Q01DX009 (ip), vehicle: Klucel (hydroxypropylcellulose) (HPC)
  T/C: 100 % of control
dose: 200.0 mg/kg/injection, schedule: Q04DX003 (ip), vehicle: Klucel (hydroxypropylcellulose) (HPC)
  T/C: 95 % of control
dose: 400.0 mg/kg/injection, schedule: Q01DX009 (ip), vehicle: Klucel (hydroxypropylcellulose) (HPC)
  T/C: 100 % of control
dose: 400.0 mg/kg/injection, schedule: Q04DX003 (ip), vehicle: Klucel (hydroxypropylcellulose) (HPC)
  T/C: 100 % of control

## O=C(O)/C(=C/c1ccc(Cl)cc1)c1ccccc1
[1]
  T/C: 91 % of control
[2]
  T/C: 94 % of control

## CCCCCCCCC(O)CCC (configuration not stated)
dose: 100.0 mg/kg/injection, schedule: Q01DX009 (ip), vehicle: saline
  T/C: 100 % of control
dose: 200.0 mg/kg/injection, schedule: Q01DX009 (ip), vehicle: saline
  T/C: 109 % of control

## O=[N+]([O-])c1ccc(S(=O)(=O)c2ccc([N+](=O)[O-])cc2)cc1
dose: 50.0 mg/kg/injection, schedule: Q04DX003 (ip), vehicle: saline with Tween-80
  T/C: 101 % of control
dose: 200.0 mg/kg/injection, schedule: Q04DX003 (ip), vehicle: saline with Tween-80
  T/C: 110 % of control
dose: 400.0 mg/kg/injection, schedule: Q04DX003 (ip), vehicle: saline with Tween-80
  T/C: 93 % of control

## C[N-]c1nnnn1Cc1ccccc1.[Au+].c1ccc([PH+](c2ccccc2)c2ccccc2)cc1
dose: 25.0 mg/kg/injection, schedule: Q04DX002 (ip), vehicle: saline with Tween-80
  T/C: 109 % of control
dose: 50.0 mg/kg/injection, schedule: Q04DX002 (ip), vehicle: saline with Tween-80
  T/C: 102 % of control
dose: 100.0 mg/kg/injection, schedule: Q04DX002 (ip), vehicle: saline with Tween-80
  T/C: 116 % of control

## Cn1c(CCCC(=O)O)nc2cc(N(CCCl)CCCl)ccc21
dose: 1.8 mg/kg/injection, schedule: Q04DX003 (ip), vehicle: saline
  T/C: 116 % of control
dose: 2.5 mg/kg/injection, schedule: Q01DX009 (ip), vehicle: saline
  T/C: 154 % of control
dose: 4.3 mg/kg/injection, schedule: Q04DX003 (ip), vehicle: saline with Tween-80
  T/C: 175 % of control
dose: 5.0 mg/kg/injection, schedule: Q01DX009 (ip), vehicle: saline
  T/C: 166 % of control
dose: 6.5 mg/kg/injection, schedule: Q04DX003 (ip), vehicle: saline with Tween-80
  T/C: 185 % of control
dose: 9.9 mg/kg/injection, schedule: Q04DX003 (ip), vehicle: saline with Tween-80
  T/C: 180 % of control
dose: 10.0 mg/kg/injection, schedule: Q01DX009 (ip), vehicle: saline
  T/C: 200 % of control
dose: 15.0 mg/kg/injection, schedule: Q04DX003 (ip), vehicle: saline with Tween-80
  T/C: 200 % of control
dose: 22.5 mg/kg/injection, schedule: Q04DX003 (ip), vehicle: saline with Tween-80
  T/C: 180 % of control

## C/C(=C\C(=O)O)CC(=O)O
dose: 25.0 mg/kg/injection, schedule: Q01DX009 (ip), vehicle: water
  T/C: 109 % of control
dose: 50.0 mg/kg/injection, schedule: Q01DX009 (ip), vehicle: water
  T/C: 95 % of control
dose: 50.0 mg/kg/injection, schedule: Q04DX003 (ip), vehicle: water
  T/C: 92 % of control
dose: 100.0 mg/kg/injection, schedule: Q01DX009 (ip), vehicle: water
  T/C: 99 % of control
dose: 100.0 mg/kg/injection, schedule: Q04DX003 (ip), vehicle: water
  T/C: 99 % of control and 108 % of control
dose: 200.0 mg/kg/injection, schedule: Q01DX009 (ip), vehicle: water
  T/C: 101 % of control
dose: 200.0 mg/kg/injection, schedule: Q04DX003 (ip), vehicle: water
  T/C: 104 % of control and 110 % of control

## Nc1ccc(/C=C\c2nccc3ccccc23)cc1
dose: 0.39 mg/kg/injection, schedule: Q01DX009 (ip), vehicle: saline with Tween-80
  T/C: 114 % of control
dose: 0.78 mg/kg/injection, schedule: Q01DX009 (ip), vehicle: saline with Tween-80
  T/C: 107 % of control
dose: 0.78 mg/kg/injection, schedule: Q01DX009 (ip), vehicle: saline
  T/C: 123 % of control
dose: 1.56 mg/kg/injection, schedule: Q01DX009 (ip), vehicle: saline
  T/C: 123 % of control
dose: 3.13 mg/kg/injection, schedule: Q01DX009 (ip), vehicle: saline with Tween-80
  T/C: 89 % of control
dose: 3.13 mg/kg/injection, schedule: Q01DX009 (ip), vehicle: saline
  T/C: 113 % of control

## Cc1c2ccc3ccccc3c2c[n+]2ccccc12
[3]
  T/C: 118 % of control
[4]
  T/C: 108 % of control
[5]
  T/C: 86 % of control
dose: 10.0 mg/kg/injection, schedule: Q04DX003 (ip), vehicle: saline with Tween-80
  T/C: 108 % of control
dose: 20.0 mg/kg/injection, schedule: Q04DX003 (ip), vehicle: saline with Tween-80
  T/C: 116 % of control

## CC1CN1c1cc(O)c(N2CC2C)cc1O (configuration not stated)
dose: 1.32 mg/kg/injection, schedule: Q01DX009 (ip), vehicle: saline with Tween-80
  T/C: 154 % of control
dose: 2.0 mg/kg/injection, schedule: Q01DX009 (ip), vehicle: saline with Tween-80
  T/C: 208 % of control
dose: 2.2 mg/kg/injection, schedule: Q01DX009 (ip), vehicle: saline with Tween-80
  T/C: 200 % of control
dose: 3.0 mg/kg/injection, schedule: Q01DX009 (ip), vehicle: saline with Tween-80
  T/C: 187 % of control
dose: 3.3 mg/kg/injection, schedule: Q01DX009 (ip), vehicle: saline with Tween-80
  T/C: 265 % of control
[3]
  T/C: 310 % of control and 204 % of control
[4]
  T/C: 154 % of control
dose: 7.5 mg/kg/injection, schedule: Q04DX003 (ip), vehicle: saline with Tween-80
  T/C: 231 % of control
[5]
  T/C: 90 % of control

## O=NN(CCF)C(=O)NC12CC3CC(CC(C3)C1)C2
dose: 5.5 mg/kg/injection, schedule: Q04DX003 (ip), vehicle: Klucel (hydroxypropylcellulose) (HPC)
  T/C: 104 % of control
dose: 11.0 mg/kg/injection, schedule: Q04DX003 (ip), vehicle: Klucel (hydroxypropylcellulose) (HPC)
  T/C: 112 % of control
dose: 12.0 mg/kg/injection, schedule: Q01DX009 (ip), vehicle: Klucel (hydroxypropylcellulose) (HPC)
  T/C: 158 % of control
dose: 22.0 mg/kg/injection, schedule: Q04DX003 (ip), vehicle: Klucel (hydroxypropylcellulose) (HPC)
  T/C: 162 % of control and 180 % of control
dose: 25.0 mg/kg/injection, schedule: Q01DX009 (ip), vehicle: Klucel (hydroxypropylcellulose) (HPC)
  T/C: 250 % of control
dose: 33.0 mg/kg/injection, schedule: Q04DX003 (ip), vehicle: Klucel (hydroxypropylcellulose) (HPC)
  T/C: 240 % of control
dose: 50.0 mg/kg/injection, schedule: Q04DX003 (ip), vehicle: Klucel (hydroxypropylcellulose) (HPC)
  T/C: 245 % of control and 300 % of control

## COC(=O)C(C#N)=N/C(=C/C=C1/N(C)c2ccccc2C1(C)C)c1ccccc1
dose: 50.0 mg/kg/injection, schedule: Q01DX009 (ip), vehicle: saline with Tween-80
  T/C: 102 % of control
[1]
  T/C: 96 % of control
[2]
  T/C: 97 % of control
